The results in this text go back to PubChem BioAssay (NCI).

The structures appear in SMILES notation.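 In this assay, cells in 96-well plates receive the compound at five concentrations for 48 hours. Endpoints are linearly interpolated between the surrounding concentrations. GI50 is the concentration that inhibits growth by half. The concentration for full growth arrest is given as TGI.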

What all share (assay): DTP human tumour cell line panel, 48 h
The subject of experiment [1] is HCC-2998 colon.
Experiment [2] deals with HCT-15 colon.
For experiment [3], the system named is HL-60(TB) leukemia.
Experiment [4] concerns K-562 leukemia.
In experiment [5] the test system is MALME-3M melanoma.
The subject of experiment [6] is NCI-H522 lung.
The subject of experiment [7] is SN12C renal.
The subject of experiment [8] is SNB-19 CNS.
The test system of experiment [9] is SR leukemia.
Experiment [10] relates to U251 CNS.

As a reminder, the TGI is the concentration giving total growth inhibition. On to `Cc1cccc2c1C(=O)OC2(C)c1cccc2ccccc12` (stereo not drawn), for which the TGI is 50.9 µM in experiment [1]; more than 100 µM in experiment [2]; 46.2 µM in experiment [3]; more than 100 µM in experiment [4]; more than 100 µM in experiment [5]; 40.4 µM in [6]. Also, the TGI was 56 µM in experiment [7], more than 100 µM in experiment [8], 68.7 µM in experiment [9] and 73.8 µM in [10].
In the case of `CC(=O)c1c[nH]cc1CO`, the TGI in experiment [1], in experiment [2], in [3], in [4], in experiment [5] and in [7] was more than 10 µM in each case. Moreover, the TGI in experiment [8], in experiment [9] and in experiment [10] was more than 10 µM each time.
In the case of `COc1ccccc1/C=N/N=C(\N)NO`, the concentration for total growth inhibition (TGI) in experiment [1] is 29.2 µM; in [2], more than 100 µM; in experiment [4], more than 100 µM; in experiment [5], more than 100 µM; in experiment [6] it was 66.9 µM; in experiment [7], more than 100 µM. Moreover, the TGI in experiment [8], in experiment [9] and in experiment [10] was more than 100 µM in each case.
As a reminder, the GI50 is the concentration giving 50% growth inhibition. Consider `CCCCCCCCCCCC[n+]1ccc(C(N)=O)cc1`, for which the GI50 in experiment [1] is 2.71 µM; in [2] it was 12.7 µM; in [4], 2.87 µM; in experiment [5] it was 2.59 µM; in [6] it was 2.33 µM; in experiment [7], 3.61 µM. For the same compound, the GI50 was 1.82 µM in [8], 4.67 µM in [9] and 1.14 µM in experiment [10]. In addition, the TGI in experiment [1] was 10.9 µM; in experiment [2], 43.6 µM; in experiment [4], more than 100 µM; in [5], 8.81 µM; in [6], 8.38 µM; in experiment [7] it was 12.6 µM. The concentration for total growth inhibition (TGI) in experiment [8] is 4.34 µM; in experiment [9] it was more than 100 µM; in experiment [10] it was 3.55 µM.
As to `CN(C)c1ccc(O)c2c1C[C@H]1C[C@H]3[C@H](N(C)C)C(=O)C(C(N)=O)=C(O)[C@@]3(O)C(=O)C1=C2O`, the GI50 in experiment [1] was 4.19 µM; in experiment [2], 4.02 µM; in experiment [3], 7.44 µM; in experiment [5], 7.51 µM; in [7], 4.8 µM; in experiment [8] it was 5.93 µM. Besides, the values for the GI50 in [9] and in experiment [10] were 3.48 µM and 4.5 µM, respectively. Moreover, the TGI is 17.8 µM in [1]; 94 µM in experiment [2]; 40.4 µM in experiment [3]; 33.3 µM in experiment [5]; more than 100 µM in experiment [7]; more than 100 µM in experiment [8]. Also, the TGI is 22.3 µM in experiment [9] and 57.1 µM in [10].
As to `O=C(CN1C(=O)c2ccccc2C1=O)C(O)CN1C(=O)c2ccccc2C1=O` (stereo not drawn), the TGI in experiment [1], in experiment [2], in experiment [3], in [6], in experiment [7] and in [8] was more than 100 µM each time. The TGI in [9] is more than 100 µM; in experiment [10] it was 91.5 µM.
Turning to `O=C1C(=O)c2ccccc2C(O)=C1CCCCCCCCC1CCCCC1`, the TGI turned out to be 24.4 µM in experiment [1]; 19.2 µM in experiment [2]; 12.1 µM in experiment [4]; 10.2 µM in experiment [5]; 25.7 µM in experiment [6]; 22.3 µM in experiment [7]. Further, the total growth inhibition concentration (TGI) is 25.1 µM in [8], 54.9 µM in experiment [9] and 17.8 µM in [10].
As for `COc1cc(/C=C2/C(=O)NC(Cc3cc(OC)c(OC)c(C)c3OC)C(=O)N2Cc2ccccc2)c(OC)c(C)c1OC` (stereo not drawn), the TGI in [1] was more than 100 µM; in [3] it was 53.3 µM; in [4], more than 100 µM; in [5], more than 100 µM; in [6], 60.2 µM; in [7], more than 100 µM. Also, the TGI was more than 100 µM in [8], 54.1 µM in experiment [9] and more than 100 µM in [10].
`CCOC1C=CCCO1` (stereo not drawn): the TGI in experiment [1] was 9.11 µM; in experiment [2], more than 100 µM; in experiment [3] it was more than 100 µM; in experiment [4], more than 100 µM; in experiment [5] it was more than 100 µM; in experiment [6], more than 100 µM. The concentration for total growth inhibition (TGI) in experiment [7], in experiment [8] and in [9] was more than 100 µM throughout.
For the compound `C=C1C(=O)O[C@H]2[C@H]1CC/C(CNS(=O)(=O)c1cccc3ccccc13)=C\CC[C@@]1(C)O[C@@H]21`, the GI50 in [1] is 2.16 µM; in experiment [2], 1.25 µM; in experiment [3], 1.21 µM; in experiment [5], 1.77 µM; in [6], 1.28 µM; in experiment [7], 2.12 µM. The figures for the GI50 in experiment [8], in experiment [9] and in experiment [10] were 5.44 µM, 1.31 µM and 3.67 µM, respectively. Moreover, the concentration for total growth inhibition (TGI) in experiment [1] was determined as 4.87 µM; in experiment [2] it was 2.7 µM; in experiment [3] it was 3.76 µM; in [5], 4.09 µM; in experiment [6] it was 2.88 µM; in experiment [7], 7.74 µM. Besides, the values for the concentration for total growth inhibition (TGI) in experiment [8], in [9] and in experiment [10] were 19.8 µM, 6.11 µM and 15.3 µM, respectively.
Regarding `COc1ccc2c(c1)OC(N)=C(C#N)C2c1ccc(F)cc1` (stereo not drawn), the GI50 in experiment [1] was 6.44 µM; in experiment [2], 0.515 µM; in experiment [3], 0.45 µM; in [5], 12.9 µM; in [6] it was 0.604 µM; in experiment [7] it was 6.82 µM. Further, the GI50 is 2.25 µM in [8], 0.51 µM in experiment [9] and 3.08 µM in experiment [10]. Also, the total growth inhibition concentration (TGI) in [1] was more than 100 µM; in experiment [2], 51.6 µM; in experiment [3] it was 7.15 µM; in [5] it was 77.9 µM; in [6], 27.1 µM; in experiment [7] it was more than 100 µM. Also, the TGI in experiment [8], in experiment [9] and in [10] was more than 100 µM in each case.
